“And” between values parts separate entries of the source, which are not always exact repeats. Equal values may be shown once.
Experiments:
[1] = target: T1, human neuraminidase 2 (NEU2) (Homo sapiens, UniProt Q9Y3R4); assay: Time-resolved CUPRA enzyme kinetics, NEU2; assay type: biochemical; details: for fraction of OSmod substrate remaining (Fig2d time course): 200 mM aqueous ammonium acetate, pH 7, 25 °C
T1 construct: made in house
Method: To apply CUPRA in this capacity, two or more substrates of interest are introduced, as their corresponding OS^mod, to a solution containing the desired CAZyme. Changes in substrate concentrations, as well as those of the corresponding enzyme products, are determined from the relative abundances of OS^mod-bound ^UniPproxy measured by time-resolved ESI-MS. Because of the manner in which the substrate and product concentrations are measured, the assay is insensitive to differences in their ESI-MS response factors and, consequently, independent of the nature of the chemical modification catalyzed by the enzyme. As a result, time-resolved CUPRA eliminates the need for calibration curves or internal standards, which are generally required with ESI-MS-based enzyme kinetics assays.
Two glycosyl hydrolases, human neuraminidase 2 (NEU2) and 3 (NEU3), which preferentially cleave α2-3-linked Neu5Ac residues, were used to illustrate the ease with which time-resolved CUPRA can establish substrate specificities. We incubated libraries of the Neu5Ac-containing OS^mod with NEU2 (Fig. 2d) or NEU3 (Fig. 2e) and monitored their conversion to the corresponding desialylated OS^mod products at pH 7 and 25 °C. […] All OS^mod containing terminal α2-3-linked Neu5Ac were substrates of NEU3, with initial rates that are 10–50% that of HMO03. […] Substrates containing branching after the α2-3-linkage were poor substrates for both enzymes. […] We note, however, that previous reports have examined NEU2 and NEU3 activity under more acidic solution conditions. Furthermore, the nature of the substrate aglycone may influence the activity of human neuraminidases.
The time-resolved CUPRA measurements were performed by manually mixing aliquots of stock solutions of NEU2 or NEU3 (final concentration 2 µM), ^UniPproxy (5 µM), substrates (Si, 5 µM each) and CUPRA linker (5 µM), all in 200 mM aqueous ammonium acetate at pH 7 and 25 °C. ESI mass spectra were collected continuously at the rate of 30 scans min^−1 starting at 3 min after mixing. The adduct distributions measured for the ^UniPproxy – CUPRA linker complex ions were used to apply SWARM. The time-dependent fractional abundance of a given substrate (FS,i) (Eq. 12), which was used to represent reaction progress, was calculated from the total Ab of ^UniPproxy bound to Si and corresponding product (Pi), corrected for Si consumed prior to data acquisition.12 FS,i=Ab^UniPproxySi/Ab^UniPproxySi+Ab^UniPproxyPi

[2] = target: Sambucus nigra lectin (SNA) (Sambucus nigra, UniProt Q41358); assay type: binding
Chain of Sambucus nigra lectin (SNA) (Q41358 309-570 limits assumed): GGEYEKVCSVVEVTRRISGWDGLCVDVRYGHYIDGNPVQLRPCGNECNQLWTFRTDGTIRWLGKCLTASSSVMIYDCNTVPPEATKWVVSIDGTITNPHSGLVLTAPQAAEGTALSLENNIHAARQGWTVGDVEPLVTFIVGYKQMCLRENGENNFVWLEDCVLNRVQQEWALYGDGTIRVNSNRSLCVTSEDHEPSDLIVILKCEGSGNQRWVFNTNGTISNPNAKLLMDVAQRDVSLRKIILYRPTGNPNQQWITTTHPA
Chain of Sambucus nigra lectin (SNA) (Q41358 29-289 partner limits assumed): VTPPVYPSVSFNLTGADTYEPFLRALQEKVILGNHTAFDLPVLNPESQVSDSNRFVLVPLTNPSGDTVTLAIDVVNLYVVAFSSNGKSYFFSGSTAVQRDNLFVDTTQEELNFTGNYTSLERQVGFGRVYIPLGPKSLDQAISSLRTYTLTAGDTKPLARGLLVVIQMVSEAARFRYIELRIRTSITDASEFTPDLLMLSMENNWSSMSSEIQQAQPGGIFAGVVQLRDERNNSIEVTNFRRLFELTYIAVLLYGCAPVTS

T1 sequence (Q9Y3R4 whole entry): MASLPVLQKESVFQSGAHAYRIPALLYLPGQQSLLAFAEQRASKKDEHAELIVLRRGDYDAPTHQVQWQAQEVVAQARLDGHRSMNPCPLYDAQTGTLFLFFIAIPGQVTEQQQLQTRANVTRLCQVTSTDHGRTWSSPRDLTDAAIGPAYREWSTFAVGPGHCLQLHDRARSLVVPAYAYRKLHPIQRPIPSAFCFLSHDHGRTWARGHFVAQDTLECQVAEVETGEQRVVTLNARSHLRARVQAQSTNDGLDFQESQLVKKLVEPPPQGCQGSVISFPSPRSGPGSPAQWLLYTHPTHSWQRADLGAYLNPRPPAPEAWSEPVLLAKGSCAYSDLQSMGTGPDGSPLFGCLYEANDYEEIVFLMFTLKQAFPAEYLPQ

In the case of `CC(=O)N[C@H]1[C@H](O[C@@H]2[C@H](O[C@]3(C(=O)O)C[C@H](O)[C@@H](NC(C)=O)[C@H]([C@H](O)[C@@H](CO)O[C@]4(C(=O)O)C[C@H](O)[C@@H](NC(C)=O)[C@H]([C@H](O)[C@H](O)CO)O4)O3)[C@@H](O)[C@H](O[C@H]3[C@H](O)[C@@H](O)[C@H](N(CCOCCOCCNC(=O)[C@H](Cc4ccccc4)NC(=O)[C@H](Cc4ccccc4)NC(=O)CCCC(=O)NCCc4ccc(S(N)(=O)=O)cc4)C(C)=O)O[C@@H]3CO)O[C@@H]2CO)O[C@H](CO)[C@H](O)[C@@H]1O` [GA10, GalNAcβ1-4(Neu5Acα2-8 Neu5Acα2-3)Galβ1-4Glc-CL], the “relative abundance of OSmod substrate (Fig2d time course)” value (“relative abundance of OSmod substrate” below) ([1]; time 0 min) is reported as 0.903, the “relative abundance of OSmod substrate” value ([1]; time 1 min) is reported as 0.9038 and the “relative abundance of OSmod substrate” value ([1]; time 2 min) is reported as 0.8996. For the same molecule, the “relative abundance of OSmod substrate” value ([1]; time 3 min) was 0.8888, the “relative abundance of OSmod substrate” value ([1]; time 4 min) was 0.9044 and the “relative abundance of OSmod substrate” value ([1]; time 7 min) was 0.9102. For the same molecule, the “relative abundance of OSmod substrate” value ([1]; time 8 min) was 0.9068, the “relative abundance of OSmod substrate” value ([1]; time 9 min) was 0.9088 and the “relative abundance of OSmod substrate” value ([1]; time 10 min) was 0.9065. The “relative abundance of OSmod substrate” value ([1]; time 11 min) was 0.9097, the “relative abundance of OSmod substrate” value ([1]; time 12 min) was 0.9035 and the “relative abundance of OSmod substrate” value ([1]; time 13 min) was 0.9029. For the same molecule, the “relative abundance of OSmod substrate” value ([1]; time 14 min) was 0.9064, the “relative abundance of OSmod substrate” value ([1]; time 15 min) was 0.8954 and the “relative abundance of OSmod substrate” value ([1]; time 16 min) was 0.9063. For the same molecule, the “relative abundance of OSmod substrate” value ([1]; time 17 min) was 0.9123, the “relative abundance of OSmod substrate” value ([1]; time 18 min) was 0.9135 and the “relative abundance of OSmod substrate” value ([1]; time 19 min) was 0.9061. For the same molecule, the “relative abundance of OSmod substrate” value ([1]; time 20 min) was 0.9106, the “relative abundance of OSmod substrate” value ([1]; time 21 min) was 0.9179 and the “relative abundance of OSmod substrate” value ([1]; time 22 min) was 0.9134. For the same molecule, the “relative abundance of OSmod substrate” value ([1]; time 23 min) was 0.9095, the “relative abundance of OSmod substrate” value ([1]; time 24 min) was 0.9035 and the “relative abundance of OSmod substrate” value ([1]; time 25 min) was 0.9132. For the same molecule, the “relative abundance of OSmod substrate” value ([1]; time 26 min) was 0.907, the “relative abundance of OSmod substrate” value ([1]; time 27 min) was 0.9132 and the “relative abundance of OSmod substrate” value ([1]; time 28 min) was 0.9116. The “relative abundance of OSmod substrate” value ([1]; time 29 min) was 0.9094, the “relative abundance of OSmod substrate” value ([1]; time 30 min) was 0.9084 and the “relative abundance of OSmod substrate” value ([1]; time 31 min) was 0.9073. For the same molecule, the “relative abundance of OSmod substrate” value ([1]; time 32 min) was 0.915, the “relative abundance of OSmod substrate” value ([1]; time 33 min) was 0.9164 and the “relative abundance of OSmod substrate” value ([1]; time 34 min) was 0.9136. The “relative abundance of OSmod substrate” value ([1]; time 35 min) was 0.9113, the “relative abundance of OSmod substrate” value ([1]; time 36 min) was 0.9057 and the “relative abundance of OSmod substrate” value ([1]; time 37 min) was 0.9031. The “relative abundance of OSmod substrate” value ([1]; time 38 min) was 0.9043, the “relative abundance of OSmod substrate” value ([1]; time 39 min) was 0.895 and the “relative abundance of OSmod substrate” value ([1]; time 40 min) was 0.8976. The “relative abundance of OSmod substrate” value ([1]; time 41 min) was 0.8827, the “relative abundance of OSmod substrate” value ([1]; time 42 min) was 0.9129 and the “relative abundance of OSmod substrate” value ([1]; time 43 min) was 0.905. For the same molecule, the “relative abundance of OSmod substrate” value ([1]; time 44 min) was 0.9072, the “relative abundance of OSmod substrate” value ([1]; time 45 min) was 0.9125 and the “relative abundance of OSmod substrate” value ([1]; time 46 min) was 0.9034. For the same molecule, the “relative abundance of OSmod substrate” value ([1]; time 47 min) was 0.9131, the “relative abundance of OSmod substrate” value ([1]; time 48 min) was 0.9147 and the “relative abundance of OSmod substrate” value ([1]; time 49 min) was 0.9115. For the same molecule, the “relative abundance of OSmod substrate” value ([1]; time 50 min) was 0.9161, the “relative abundance of OSmod substrate” value ([1]; time 51 min) was 0.9162 and the “relative abundance of OSmod substrate” value ([1]; time 52 min) was 0.9166. The “relative abundance of OSmod substrate” value ([1]; time 53 min) was 0.9066, the “relative abundance of OSmod substrate” value ([1]; time 54 min) was 0.9094 and the “relative abundance of OSmod substrate” value ([1]; time 55 min) was 0.9043. The “relative abundance of OSmod substrate” value ([1]; time 56 min) was 0.9097, the “relative abundance of OSmod substrate” value ([1]; time 57 min) was 0.9071 and the “relative abundance of OSmod substrate” value ([1]; time 58 min) was 0.9137. The “relative abundance of OSmod substrate” value ([1]; time 59 min) was 0.9089, the “relative abundance of OSmod substrate” value ([1]; time 60 min) was 0.9084 and the “relative abundance of OSmod substrate” value ([1]; time 61 min) was 0.9152. For the same molecule, the “relative abundance of OSmod substrate” value ([1]; time 62 min) was 0.9099, the “relative abundance of OSmod substrate” value ([1]; time 63 min) was 0.9041 and the “relative abundance of OSmod substrate” value ([1]; time 64 min) was 0.9. The “relative abundance of OSmod substrate” value ([1]; time 65 min) was 0.9101, the “relative abundance of OSmod substrate” value ([1]; time 66 min) was 0.9104 and the “relative abundance of OSmod substrate” value ([1]; time 67 min) was 0.9077. The “relative abundance of OSmod substrate” value ([1]; time 68 min) was 0.9072, the “relative abundance of OSmod substrate” value ([1]; time 69 min) was 0.9129 and the “relative abundance of OSmod substrate” value ([1]; time 70 min) was 0.9057. The “relative abundance of OSmod substrate” value ([1]; time 71 min) was 0.9057, the “relative abundance of OSmod substrate” value ([1]; time 72 min) was 0.9132 and the “relative abundance of OSmod substrate” value ([1]; time 73 min) was 0.9108. For the same molecule, the “relative abundance of OSmod substrate” value ([1]; time 74 min) was 0.9071, the “relative abundance of OSmod substrate” value ([1]; time 75 min) was 0.9161 and the “relative abundance of OSmod substrate” value ([1]; time 76 min) was 0.9095. For the same molecule, the “relative abundance of OSmod substrate” value ([1]; time 77 min) was 0.9151, the “relative abundance of OSmod substrate” value ([1]; time 78 min) was 0.9122 and the “relative abundance of OSmod substrate” value ([1]; time 79 min) was 0.9076. For the same molecule, the “relative abundance of OSmod substrate” value ([1]; time 80 min) was 0.9134, the “relative abundance of OSmod substrate” value ([1]; time 81 min) was 0.9135 and the “relative abundance of OSmod substrate” value ([1]; time 82 min) was 0.9162. For the same molecule, the “relative abundance of OSmod substrate” value ([1]; time 83 min) was 0.9125, the “relative abundance of OSmod substrate” value ([1]; time 84 min) was 0.9098 and the “relative abundance of OSmod substrate” value ([1]; time 97 min) was 0.9111. For the same molecule, the “relative abundance of OSmod substrate” value ([1]; time 98 min) was 0.9062, the “relative abundance of OSmod substrate” value ([1]; time 99 min) was 0.9109 and the “relative abundance of OSmod substrate” value ([1]; time 100 min) was 0.915. For the same molecule, the “relative abundance of OSmod substrate” value ([1]; time 101 min) was 0.9087, the “relative abundance of OSmod substrate” value ([1]; time 102 min) was 0.916 and the “relative abundance of OSmod substrate” value ([1]; time 103 min) was 0.9129. For the same molecule, the “relative abundance of OSmod substrate” value ([1]; time 104 min) was 0.9139, the “relative abundance of OSmod substrate” value ([1]; time 105 min) was 0.9109 and the “relative abundance of OSmod substrate” value ([1]; time 106 min) was 0.908. For the same molecule, the “relative abundance of OSmod substrate” value ([1]; time 107 min) was 0.9138, the “relative abundance of OSmod substrate” value ([1]; time 108 min) was 0.911 and the “relative abundance of OSmod substrate” value ([1]; time 109 min) was 0.9085. For the same molecule, the “relative abundance of OSmod substrate” value ([1]; time 110 min) was 0.8819, the “relative abundance of OSmod substrate” value ([1]; time 111 min) was 0.9092 and the “relative abundance of OSmod substrate” value ([1]; time 112 min) was 0.9111. For the same molecule, the “relative abundance of OSmod substrate” value ([1]; time 113 min) was 0.9127, the “fraction of OSmod substrate remaining (Fig2d time course)” value (“fraction of OSmod substrate remaining” below) ([1]; time 114 min, time-resolved CUPRA) was 0.9126 and the “fraction of OSmod substrate remaining” value ([1]; time 115 min, time-resolved CUPRA) was 0.9042. For the same molecule, the “fraction of OSmod substrate remaining” value ([1]; time 116 min, time-resolved CUPRA) was 0.909, the “fraction of OSmod substrate remaining” value ([1]; time 117 min, time-resolved CUPRA) was 0.9097 and the “fraction of OSmod substrate remaining” value ([1]; time 118 min, time-resolved CUPRA) was 0.9085. The “fraction of OSmod substrate remaining” value ([1]; time 119 min, time-resolved CUPRA) was 0.9043, the “fraction of OSmod substrate remaining” value ([1]; time 120 min, time-resolved CUPRA) was 0.904 and the “fraction of OSmod substrate remaining” value ([1]; time 121 min, time-resolved CUPRA) was 0.904. For the same molecule, the “fraction of OSmod substrate remaining” value ([1]; time 122 min, time-resolved CUPRA) was 0.904, the “fraction of OSmod substrate remaining” value ([1]; time 123 min, time-resolved CUPRA) was 0.904 and the “fraction of OSmod substrate remaining” value ([1]; time 124 min, time-resolved CUPRA) was 0.904. For the same molecule, the “Relative activity NEU2” value ([1]; time-resolved CUPRA, 200 mM aqueous ammonium acetate pH 7, 25 °C, relative to HMO03) was 0.000, the “DIi(5uM SNA)” value [2] was 1 and 0.9993 and 0.9948 and 0.9939 and the “average DI” value [2] was 0.9971.
